Experiments:
[1] = tested on: colorectal cancer xenografts with RSPO3 translocations; design: method as in PMID 26257057; conditions: cited from earlier work
HCT116 cells = test: In vitro glucose uptake; format: cell-based, human; conditions: HCT116, Latrunculin A 500 nmol/L, 48 hours
Method: (§1) SNU-1411, HPAF-II, and HCT116 cells were treated in vitro for 48 hours with RXC004 (100 nmol/L), Latrunculin A (Abcam #ab144290; 500 nmol/L), or DMSO prior to analysis using the Glucose Uptake Glo Assay Kit (Promega #J1341). The ATPlite assay was used to control for cell viability, confirming RXC004 has no effect on proliferation at this 48 hours timepoint.

HPAF-II cells = test: In vitro glucose uptake; format: cell-based, human; conditions: Latrunculin A 500 nmol/L, 48 hours
Method: as §1

SNU-1411 cells = test: In vitro glucose uptake; format: cell-based, human; conditions: SNU-1411, Latrunculin A 500 nmol/L, 48 hours
Method: as §1

| Structure (SMILES) | duration of tumor regrowth suppression after withdrawal of treatment [1] | glucose uptake (HCT116 cells) | glucose uptake (HPAF-II cells) | glucose uptake (SNU-1411 cells) |
| --- | --- | --- | --- | --- |
| Cn1c(=O)c2c(ncn2CC(=O)Nc2ccc(-c3ccccc3)nn2)n(C)c1=O [ETC-159] | up to 6 weeks | – | – | – |
| C/C1=C/C(=O)O[C@@H]2C[C@@H](CC[C@H](C)/C=C\C=C\CC1)O[C@@](O)([C@@H]1CSC(=O)N1)C2 [Latrunculin A, reference compound] | – | blocked glucose uptake | blocked glucose uptake | blocked glucose uptake |

— publication PMC10010340, “The Wnt Pathway Inhibitor RXC004 Blocks Tumor Growth and Reverses Immune Evasion in Wnt Ligand–dependent Cancer Models” (Cancer Research Communications, 2022)
